Measured values as given in patent US20070281857A1, “FORMIC ACID AS AN HERBICIDE” (MARRONE ORGANIC INNOVATIONS, priority 2006, published 2007).
Where two headings read alike, the source gives them in different places.

Columns and labels:
dicots (radishes) = settings: solution in water at 0.5% and 0.1%
Source text: (§1) Numerous natural compounds were screened for their ability to inhibit the germination of seeds. A single seed was placed in each well of a 96-well plate followed by a solution of each compound in water at both 0.5% and 0.1%. Germination was monitored at varying intervals, depending on the germination time in the control groups for the particular seed being used in the study.

monocots (wheat) = settings: solution in water at 0.5% and 0.1%
Source text: as §1

[1] = tested on: Seedlings of Lactuca sativa (lettuce)
Description: A high-throughput 96-well assay was used to test the efficacy of formic acid as a post-emergence, non-selective herbicide. Seedlings of Lactuca sativa (lettuce) were grown in 96-well plates under continuous light. Formic acid was added on the seedlings at a 5x-dilution series from 20% to 0%, and the minimum concentration needed for killing the seedling was recorded the next day.

[2] = tested on: Poa annua (annual bluegrass); settings: one week, relative to control
Description: (§2) To further test the inhibitory effect of formic acid on germinating seeds, pots with 6-cm diameter were filled with 60 mL of silty clay loam soil passed through a 2-mm sieve, and five (5) seeds of either Taraxacum officinale (dandelion, representing a broadleaved weed) or Poa annua (annual bluegrass, representing a grass weed) were planted on the top. A solid form of the composition containing corn gluten meal granules (1-2 mm diameter) soaked in 0%, 5%, 10% or 20% formic acid solution and dried were placed on the top of the soil at rates 0.1, 0.25, 0.5 and 1.0 g/pot. The pots were kept at optimum water content under growth lights with a 12-h light/dark period at room temperature, and the number of germinated seeds was counted after one week.

[3] = tested on: Taraxacum officinale (dandelion); settings: one week, relative to control
Description: as §2

[4] = tested on: Poa annua (annual bluegrass); settings: for germination rate (%) annual bluegrass: one week, compared with control
Description: as §2, with “Pots” for “To further test the inhibitory effect of formic acid on germinating seeds, pots”, “3-cm” for “6-cm”, “silt” for “silty”, “(>2” for “(1-2”, “10%, 15%” for “5%, 10%”

[5] = tested on: Taraxacum officinale (dandelion); settings: for germination rate (%) dandelion: one week, compared with control
Description: as §2, with “Pots” for “To further test the inhibitory effect of formic acid on germinating seeds, pots”, “3-cm” for “6-cm”, “silt” for “silty”, “(>2” for “(1-2”, “10%, 15%” for “5%, 10%”

dicot seeds = settings: charcoal saturated at 1 mL acid/1 g charcoal, applied to soil in flats; FIG. 2
Source text: (§3) Charcoal was applied to soil in flats containing a known number of seeds, either monocot or dicot, and germination was monitored in each of the treatment groups following intervals determined by the rate of germination in controls.

monocot seeds = settings: charcoal saturated at 1 mL acid/1 g charcoal, applied to soil in flats; FIG. 1
Source text: as §3

Lactuca sativa (lettuce) = settings: for germination rate potting mix clay / germination rate soil (silty clay loam) clay / germination rate potting mix corn starch / germination rate soil (silty clay loam) corn starch / germination rate potting mix sand / germination rate soil (silty clay loam) sand: 7 days, relative to untreated control
Description: To test different carriers for formic acid, corn starch (powder), clay (granular, >2 mm diameter) and sand (small grain) were saturated with formic acid solutions (1, 3, and 5%) and dried at room temperature. Dry product (7.5 mL) was mixed with 60 mL of either potting mix or soil, and the mixture was placed in a small pot. Five (5) seeds of Lactuca sativa (lettuce) were planted on the top of each pot, and the seeds were covered with sand. The pots were incubated at room temperature under continuous light for 7 days, after which the number of seeds germinated in each pot was recorded and presented as a germination rate relative to the untreated control.

[6] = 5% formic acid in corn gluten meal granules 1-2 mm, 0.1 g/pot
[7] = 5% formic acid in corn gluten meal granules 1-2 mm, 0.25 g/pot
[8] = 5% formic acid in corn gluten meal granules 1-2 mm, 0.5 g/pot
[9] = 5% formic acid in corn gluten meal granules 1-2 mm, 1 g/pot
[10] = 10% formic acid in corn gluten meal granules 1-2 mm, 0.1 g/pot
[11] = 10% formic acid in corn gluten meal granules 1-2 mm, 0.25 g/pot
[12] = 10% formic acid in corn gluten meal granules 1-2 mm, 0.5 g/pot
[13] = 10% formic acid in corn gluten meal granules 1-2 mm, 1 g/pot
[14] = 20% formic acid in corn gluten meal granules 1-2 mm, 0.1 g/pot
[15] = 20% formic acid in corn gluten meal granules 1-2 mm, 0.25 g/pot
[16] = 20% formic acid in corn gluten meal granules 1-2 mm, 0.5 g/pot
[17] = 20% formic acid in corn gluten meal granules 1-2 mm, 1 g/pot
[18] = 20% formic acid in corn gluten meal granules 1-2 mm, 1 g/pot, listed as formic acid
[19] = 10% formic acid in corn gluten meal granules >2 mm, 0.1 g/pot
[20] = 10% formic acid in corn gluten meal granules >2 mm, 0.25 g/pot
[21] = 10% formic acid in corn gluten meal granules >2 mm, 0.5 g/pot
[22] = 10% formic acid in corn gluten meal granules >2 mm, 1 g/pot
[23] = 15% formic acid in corn gluten meal granules >2 mm, 0.1 g/pot
[24] = 15% formic acid in corn gluten meal granules >2 mm, 0.25 g/pot
[25] = 15% formic acid in corn gluten meal granules >2 mm, 0.5 g/pot
[26] = 15% formic acid in corn gluten meal granules >2 mm, 1 g/pot
[27] = 20% formic acid in corn gluten meal granules >2 mm, 0.1 g/pot
[28] = 20% formic acid in corn gluten meal granules >2 mm, 0.25 g/pot
[29] = 20% formic acid in corn gluten meal granules >2 mm, 0.5 g/pot
[30] = 20% formic acid in corn gluten meal granules >2 mm, 1 g/pot
[31] = bigger granules (>2 mm) imbedded in 15% formic acid

O=CO [Formic acid]
ability to inhibit germination of seeds (dicots (radishes)): inhibit germination of seeds
ability to inhibit germination of seeds (monocots (wheat)): inhibit germination of seeds
minimum concentration needed for killing the seedling ([1]; 5x-dilution series from 20% to 0%, recorded the next day): 0.8%
effect on lettuce seedling ([1]; formic acid 0.16%, next day): not harmful for the plant
germination rate (%) annual bluegrass [2, 6]: 100%
germination rate (%) annual bluegrass [2, 7]: 82%
germination rate (%) annual bluegrass [2, 8]: 82%
germination rate (%) annual bluegrass [2, 9]: 82%
germination rate (%) annual bluegrass [2, 10]: 100%
germination rate (%) annual bluegrass [2, 11]: 100%
germination rate (%) annual bluegrass [2, 12]: 54%
germination rate (%) annual bluegrass [2, 13]: 54%
germination rate (%) annual bluegrass [2, 14]: 100%
germination rate (%) annual bluegrass [2, 15]: 54%
germination rate (%) annual bluegrass [2, 16]: 27%
germination rate (%) annual bluegrass [2, 17]: 0%
germination rate (%) annual bluegrass [2, 18]: inhibited the germination
germination rate (%) dandelion [3, 6]: 100%
germination rate (%) dandelion [3, 7]: 50%
germination rate (%) dandelion [3, 8]: 0%
germination rate (%) dandelion [3, 9]: 0%
germination rate (%) dandelion [3, 10]: 0%
germination rate (%) dandelion [3, 11]: 0%
germination rate (%) dandelion [3, 12]: 0%
germination rate (%) dandelion [3, 13]: 100%
germination rate (%) dandelion [3, 14]: 0%
germination rate (%) dandelion [3, 15]: 0%
germination rate (%) dandelion [3, 16]: 0%
germination rate (%) dandelion [3, 17]: 0%
germination rate (%) dandelion [3, 18]: inhibited the germination
germination rate (%) annual bluegrass [4, 19]: 100%
germination rate (%) annual bluegrass [4, 20]: 100%
germination rate (%) annual bluegrass [4, 21]: 30%
germination rate (%) annual bluegrass [4, 22]: 100%
germination rate (%) annual bluegrass [4, 23]: 0%
germination rate (%) annual bluegrass [4, 24]: 0%
germination rate (%) annual bluegrass [4, 25]: 0%
germination rate (%) annual bluegrass [4, 26]: 100%
germination rate (%) annual bluegrass [4, 27]: 100%
germination rate (%) annual bluegrass [4, 28]: 100%
germination rate (%) annual bluegrass [4, 29]: 100%
germination rate (%) annual bluegrass [4, 30]: 100%
control of the grass seed germination [4, 31]: not effective
germination rate (%) dandelion [5, 19]: 60%
germination rate (%) dandelion [5, 20]: 30%
germination rate (%) dandelion [5, 21]: 30%
germination rate (%) dandelion [5, 22]: 0%
germination rate (%) dandelion [5, 23]: 30%
germination rate (%) dandelion [5, 24]: 30%
germination rate (%) dandelion [5, 25]: 30%
germination rate (%) dandelion [5, 26]: 0%
germination rate (%) dandelion [5, 27]: 0%
germination rate (%) dandelion [5, 28]: 0%
germination rate (%) dandelion [5, 29]: 0%
germination rate (%) dandelion [5, 30]: 0%
control of a broadleaved weed [5, 31]: complete control
effect on the germination of dicot seeds (dicot seeds): profound effect
effect on the germination of monocot seeds (monocot seeds): profound effect
germination rate potting mix clay (Lactuca sativa (lettuce); 1% formic acid on clay): 100
germination rate soil (silty clay loam) clay (Lactuca sativa (lettuce); 1% formic acid on clay): 100
germination rate potting mix corn starch (Lactuca sativa (lettuce); 1% formic acid on corn starch): 100
germination rate soil (silty clay loam) corn starch (Lactuca sativa (lettuce); 1% formic acid on corn starch): 100
germination rate potting mix sand (Lactuca sativa (lettuce); 1% formic acid on sand): 100
germination rate soil (silty clay loam) sand (Lactuca sativa (lettuce); 1% formic acid on sand): 100
germination rate potting mix clay (Lactuca sativa (lettuce); 3% formic acid on clay): 80
germination rate soil (silty clay loam) clay (Lactuca sativa (lettuce); 3% formic acid on clay): 100
germination rate potting mix corn starch (Lactuca sativa (lettuce); 3% formic acid on corn starch): 100
germination rate soil (silty clay loam) corn starch (Lactuca sativa (lettuce); 3% formic acid on corn starch): 75
germination rate potting mix sand (Lactuca sativa (lettuce); 3% formic acid on sand): 80
germination rate soil (silty clay loam) sand (Lactuca sativa (lettuce); 3% formic acid on sand): 100
control of germination of lettuce, comparison of tested products (Lactuca sativa (lettuce); 5% formic acid imbedded in clay granules): best control of germination
germination rate potting mix clay (Lactuca sativa (lettuce); 5% formic acid on clay): 60
germination rate soil (silty clay loam) clay (Lactuca sativa (lettuce); 5% formic acid on clay): 50
germination rate potting mix corn starch (Lactuca sativa (lettuce); 5% formic acid on corn starch): 100
germination rate soil (silty clay loam) corn starch (Lactuca sativa (lettuce); 5% formic acid on corn starch): 100
germination rate potting mix sand (Lactuca sativa (lettuce); 5% formic acid on sand): 20
germination rate soil (silty clay loam) sand (Lactuca sativa (lettuce); 5% formic acid on sand): 100
